Like-named read-outs stand apart in the source and are kept apart here. Numbered stars: 1 amine (or outer) side, 2 acyl side, 3 side chain; on linkers, the order of the positions; unused ones are H or OH. Bridge positions count the residues as written; N and C are the ends. Peptide text beside a SMILES is read from it. * marks the point of attachment. C20 diacid = O=C(O)CCCCCCCCCCCCCCCCCCC(=O)*; γGlu = O=C(O)[C@H](CCC(=O)[*:2])N[*:1]
Assays:
[1] = biological target: T1, human amylin receptor (membranes from Amylin 3(a)/CRE-luc cells) (Homo sapiens, UniProt O60896+P30988); assay: ASSAY (V) binding to the human amylin receptor (SPA, 125I-rat amylin);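 note: competition binding of cell membranes (35 ng/µL) mixed with SPA beads in 384-well plates at 40 µL total volume, read by scintillation counting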
T1 construct: expressed in transfected cells
T1 sequence (P30988 25-474): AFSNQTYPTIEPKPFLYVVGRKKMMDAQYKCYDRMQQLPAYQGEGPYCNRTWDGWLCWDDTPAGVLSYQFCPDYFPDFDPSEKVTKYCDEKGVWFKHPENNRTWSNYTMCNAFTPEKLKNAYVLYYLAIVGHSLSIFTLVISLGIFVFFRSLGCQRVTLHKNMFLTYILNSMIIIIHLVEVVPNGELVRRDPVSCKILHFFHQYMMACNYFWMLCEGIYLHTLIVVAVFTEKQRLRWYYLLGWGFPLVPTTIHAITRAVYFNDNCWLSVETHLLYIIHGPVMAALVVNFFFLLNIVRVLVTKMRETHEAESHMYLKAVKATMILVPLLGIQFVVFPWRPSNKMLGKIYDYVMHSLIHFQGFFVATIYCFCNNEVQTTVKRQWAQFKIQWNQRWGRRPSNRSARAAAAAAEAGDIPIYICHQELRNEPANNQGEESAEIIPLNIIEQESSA
T1 sequence (O60896 24-148 partner): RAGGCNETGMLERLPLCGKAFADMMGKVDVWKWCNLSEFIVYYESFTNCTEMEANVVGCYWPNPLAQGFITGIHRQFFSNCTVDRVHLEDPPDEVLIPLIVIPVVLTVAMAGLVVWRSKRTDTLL

[2] = ASSAY (III) ThT fibrillation assay for physical stability; type: physicochemical
From the text: Assay (III)—ThT Fibrillation Assays for the Assessment of Physical Stability of Protein Formulations Low physical stability of a polypeptide may lead to amyloid fibril formation, which is observed as well-ordered, thread-like macromolecular structures in the sample eventually resulting in gel formation. This has traditionally been measured by visual inspection of the sample. However, that kind of measurement is very subjective and depending on the observer. Therefore, the application of a small molecule indicator probe is much more advantageous. Thioflavin T (ThT) is such a probe and has a distinct fluorescence signature when binding to fibrils [Naiki et al. (1989) Anal. […] LeVine (1999) Methods. Enzymol. […], 274-284]. The time course for fibril formation can be described by a sigmoidal curve with the following expression [Nielsen et al. (2001) Biochemistry 40, 6036-6046]; […] Here, F is the ThT fluorescence at the time t. The constant t0 is the time needed to reach 50% of maximum fluorescence. […] Few of those intermediates nucleate to form a template onto which further intermediates may assembly and the fibrillation proceeds. The lag-time corresponds to the interval in which the critical mass of nucleus is built up and the apparent rate constant is the rate with which the fibril itself is formed. Sample Preparation Samples were prepared freshly before each assay. Each sample composition is described in each example. The pH of the sample was adjusted to the desired value using appropriate amounts of concentrated NaOH and HClO4 or HCl. Thioflavin T was added to the samples from a stock solution in H2O to a final concentration of 1 μM. Sample aliquots of 200 μl were placed in a 96 well microtiter plate (Packard OptiPlate™96, white polystyrene). Usually, four or eight replica of each sample (corresponding to one test condition) were placed in one column of wells. The plate was sealed with Scotch Pad (Qiagen). Incubation and Fluorescence Measurement Incubation at given temperature, shaking and measurement of the ThT fluorescence emission were done in a Fluoroskan Ascent FL fluorescence platereader or Varioskan platereader (Thermo Labsystems). The temperature was adjusted to 37° C. The orbital shaking was adjusted to 960 rpm with an amplitude of 1 mm in all the presented data. Fluorescence measurement was done using excitation through a 444 nm filter and measurement of emission through a 485 nm filter. Each run was initiated by incubating the plate at the assay temperature for 10 min. The plate was measured every 20 minutes for a desired period of time. Between each measurement, the plate was shaken and heated as described. Data Handling The measurement points were saved in Microsoft Excel format for further processing and curve drawing and fitting was performed using GraphPad Prism. The background emission from ThT in the absence of fibrils was negligible. The data points are typically a mean of four or eight samples and shown with standard deviation error bars. Only data obtained in the same experiment (i.e. samples on the same plate) are presented in the same graph ensuring a relative measure of fibrillation between experiments. The data set may be fitted to Eq. […] However, since full sigmodial curves in this case are not always achieved during the measurement time, the degree of fibrillation is expressed as ThT fluorescence tabulated as the mean of the samples and shown with the standard deviation at various time points. Measurement of Initial and Final Concentrations The polypeptide concentration in each of the tested formulations were measured both before application in the ThT fibrillation assay (“Initial”) and after completion of the ThT fibrillation (“After ThT assay”). Concentrations were determined by reverse HPLC methods using a pramlintide standard as a reference. Before measurement after completion 150 μl was collected from each of the replica and transferred to an Eppendorf tube. These were centrifuged at 30000 G for 40 mins. […]

[3] = ASSAY (IV) determination of solubility; type: physicochemical
Protocol: Assay (IV)—Determination of Solubility
The polypeptide was dissolved in water at −500 nmol/ml and mixed 1:1 with a series of buffers (100 mM glycylglycine pH 3.0, 100 mM glycylglycine pH 4.0, 100 mM glycylglycine pH 5.0, 100 mM bistrispropane pH 6.0, 100 mM bistrispropane pH 6.5, 100 mM bistrispropane pH 7.0, 100 mM bistrispropane pH 7.5, 100 mM bistrispropane pH 8.0). After 18 hours at room temperature the samples were centrifuged and the polypeptide concentration determined by UPLC.

[4] = biological target: T2, human amylin 3(a) receptor (human calcitonin receptor + RAMP-3) in BHK570 cells (Homo sapiens, UniProt O60896+P30988); assay: ASSAY (II)a functional assay, human amylin receptor (CRE luciferase); type: cell-based
T2 construct: expressed in transfected cells
From the text: 1. Luciferase Assay Outline
Activation of calcitonin and amylin (coexpression of calcitonin receptor and receptor activity modifying proteins (RAMP)) receptors lead to increased intracellular concentrations of cAMP. Consequently, transcription is activated by promoters containing multiple copies of the cAMP response element (CRE). It is thus possible to measure amylin activity by the use of a CRE luciferase reporter gene introduced into BHK cells also expressing calcitonin or amylin receptors.
2. Construction of Calcitonin (a)- and Amylin 3(a)-Receptor/CRE-Luc Cell Line.
The cell line was further transfected with RAMP-3, using standard methods. This turns the calcitonin receptor into an amylin 3(a) receptor. Methotrexate, Neomycin, and Hygromycin are selection markers for luciferase, the calcitonin receptor, and RAMP-3, respectively.
To perform activity assays, BHK calcitonin (a) receptor- or amylin 3(a)-receptor/CRE-luc cells were seeded in white 96 well culture plates at a density of about 20.000 cells/well. […] After incubation overnight at 37° C. and 5% CO2, the growth medium was replaced by 50 μl/well assay medium (DMEM (without phenol red), Glutamax™, 10% FBS, and 10 mM Hepes, pH 7.4). Further, 50 μl/well of standard or sample in assay buffer were added. After 3 hours incubation at 37° C. and 5% CO2, the assay medium with standard or sample were removed and replaced by 100 μl/well PBS. Further, 100 μl/well LucLite™ was added. The plates were sealed and incubated at room temperature for 30 minutes. Finally, luminescence was measured on a TopCounter (Packard) in SPC (single photon counting) mode.

[5] = Table 5, selectivity, hCTR bind IC50 / hAmylin-R bind IC50
[6] = Table 7, human binding selectivity, included for comparison
[7] = bistrispropane buffer, pH 6.5, read-out: Solubility pH 6.5 Concentration
[8] = bistrispropane buffer, pH 7.5, read-out: Solubility pH 7.5 Concentration
[9] = bistrispropane buffer, pH 6.0, read-out: Solubility pH 6.0 Concentration
[10] = bistrispropane buffer, pH 7.0, read-out: Solubility pH 7.0 Concentration
[11] = bistrispropane buffer, pH 8.0, read-out: Solubility pH 8.0 Concentration
[12] = glycylglycine buffer, pH 3.0, read-out: Solubility pH 3.0 Concentration
[13] = glycylglycine buffer, pH 4.0, read-out: Solubility pH 4.0 Concentration
[14] = glycylglycine buffer, pH 5.0, read-out: Solubility pH 5.0 Concentration
[15] = hCTR funct. EC50 divided by hAmylin-R funct. EC50
[16] = hCTR funct. EC50 over hAmylin-R funct. EC50
[17] = human functional selectivity: hCTR funct. EC50 / hAmylin-R funct. EC50

Row | Ratio hCT/hAmylin binding [1, 5] | Ratio hCT/hAmylin binding [1, 6] | ThT pH 4.0 lag time (h) [2] [h] | solubility at 18 h [3, 7] [µM] | solubility at 18 h [3, 8] [µM] | solubility at 18 h [3, 9] [µM] | solubility at 18 h [3, 10] [µM] | solubility at 18 h [3, 11] [µM] | solubility at 18 h [3, 12] [µM] | solubility at 18 h [3, 13] [µM] | solubility at 18 h [3, 14] [µM] | Ratio hCT/hAmylin funct. [4, 15] | Ratio hCT/hAmylin funct. [4, 16] | Ratio hCT/hAmylin funct. [4, 17] | Ratio hCT/hAmylin funct. ([4]; hCTR funct. EC50 / hAmylin-R funct. EC50) | Compound
1 | 8.0 | 8.0 | 19 | ≥ 200 | ≥ 200 | ≥ 200 | ≥ 200 | ≥ 200 | ≥ 200 | ≥ 200 | ≥ 200 | 7.4 | 7.4 | 7.4 |  | CC[C@H](C)[C@H](NC(=O)[C@H](C)NC(=O)CNC(=O)[C@H](Cc1ccccc1)NC(=O)[C@H](CC(N)=O)NC(=O)[C@@H]1CCCN1C(=O)[C@H](CO)NC(=O)[C@H](CO)NC(=O)[C@H](Cc1c[nH]cn1)NC(=O)[C@H](CCCNC(=N)N)NC(=O)[C@H](CC(C)C)NC(=O)[C@H](Cc1ccccc1)NC(=O)[C@H](CCC(=O)O)NC(=O)[C@H](C)NC(=O)[C@H](CC(C)C)NC(=O)[C@H](CCCNC(=N)N)NC(=O)[C@H](CCC(N)=O)NC(=O)[C@@H](NC(=O)[C@H](C)NC(=O)[C@@H]1CSSC[C@H](NC(=O)[C@H](CCCCN)NC(=O)CC[C@H](NC(=O)CCCCCCCCCCCCCCCCCCC(=O)O)C(=O)O)C(=O)N[C@@H](CC(N)=O)C(=O)N[C@@H]([C@@H](C)O)C(=O)N[C@@H](C)C(=O)N[C@@H]([C@@H](C)O)C(=O)N1)[C@@H](C)O)C(=O)N1CCC[C@H]1C(=O)N[C@@H](CO)C(=O)N[C@@H](CO)C(=O)N[C@H](C(=O)N[C@@H](CC(N)=O)C(=O)N[C@H](C(=O)NCC(=O)N[C@@H](CO)C(=O)N[C@@H](CC(N)=O)C(=O)N[C@H](C(=O)N[C@@H](Cc1ccc(O)cc1)C(N)=O)[C@@H](C)O)C(C)C)[C@@H](C)O [Example 9]
2 | 2.2 | 2.2 | 45 | ≥ 200 | ≥ 200 | ≥ 200 | ≥ 200 | ≥ 200 | ≥ 200 | ≥ 200 | ≥ 200 | 1.6 | 1.6 | 1.6 | 1.6 | CC[C@H](C)[C@H](NC(=O)[C@H](C)NC(=O)CNC(=O)[C@H](Cc1ccccc1)NC(=O)[C@H](CC(N)=O)NC(=O)[C@@H]1CCCN1C(=O)[C@H](CO)NC(=O)[C@H](CO)NC(=O)[C@H](Cc1c[nH]cn1)NC(=O)[C@H](CCCNC(=N)N)NC(=O)[C@H](CC(C)C)NC(=O)[C@H](Cc1ccccc1)NC(=O)[C@H](CCC(=O)O)NC(=O)[C@H](C)NC(=O)[C@H](CC(C)C)NC(=O)[C@H](CCCNC(=N)N)NC(=O)[C@H](CCC(N)=O)NC(=O)[C@@H](NC(=O)[C@H](C)NC(=O)[C@@H]1CSSC[C@H](NC(=O)[C@H](CCCCN)NC(=O)CC[C@H](NC(=O)CC[C@H](NC(=O)CCCCCCCCCCCCCCCCCCC(=O)O)C(=O)O)C(=O)O)C(=O)N[C@@H](CC(N)=O)C(=O)N[C@@H]([C@@H](C)O)C(=O)N[C@@H](C)C(=O)N[C@@H]([C@@H](C)O)C(=O)N1)[C@@H](C)O)C(=O)N1CCC[C@H]1C(=O)N[C@@H](CO)C(=O)N[C@@H](CO)C(=O)N[C@H](C(=O)N[C@@H](CC(N)=O)C(=O)N[C@H](C(=O)NCC(=O)N[C@@H](CO)C(=O)N[C@@H](CC(N)=O)C(=O)N[C@H](C(=O)N1CCC[C@H]1C(N)=O)[C@@H](C)O)C(C)C)[C@@H](C)O [Example 14] ({C20 diacid-γGlu-γGlu}-KCNTATCATQRLAEFLRHSSPNFGAIPSSTNVGSNTP-NH2; disulfide 2-7)
